Measurements reported in BindingDB's records for doi:10.1021/jm00018a020 (Centre De Recherche Pierre Fabre, 1995).

Biological target: 5-hydroxytryptamine receptor 1B (Homo sapiens) (UniProt P28222)
Assay: Binding affinity for cloned human 5-hydroxytryptamine 1D receptor beta

Chain of 5-hydroxytryptamine receptor 1B (Homo sapiens) (P28222 whole entry, looked up): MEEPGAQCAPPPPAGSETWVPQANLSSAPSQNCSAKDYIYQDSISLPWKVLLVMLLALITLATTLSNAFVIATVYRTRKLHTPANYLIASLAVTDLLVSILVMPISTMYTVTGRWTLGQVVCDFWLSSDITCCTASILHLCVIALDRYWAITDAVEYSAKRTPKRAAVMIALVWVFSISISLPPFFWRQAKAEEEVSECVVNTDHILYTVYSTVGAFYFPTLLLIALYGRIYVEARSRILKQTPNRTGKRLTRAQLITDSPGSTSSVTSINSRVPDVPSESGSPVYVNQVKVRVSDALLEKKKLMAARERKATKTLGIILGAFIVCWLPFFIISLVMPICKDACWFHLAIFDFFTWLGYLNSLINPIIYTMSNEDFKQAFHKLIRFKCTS

| Structure (SMILES) | Ki |
| --- | --- |
| CN(C)S(=O)(=O)Nc1ccc(N2CCN(C(=O)COc3ccc4[nH]cc(CCN)c4c3)CC2)cc1 | 1.9 nM |
| N#Cc1ccccc1N1CCN(C(=O)COc2ccc3[nH]cc(CCN)c3c2)CC1 [2-(4-{2-[3-(2-Amino-ethyl)-1H-indol-5-yloxy]-acetyl}-piperazin-1-yl)-benzonitrile] | 0.39 nM |
| NCCc1c[nH]c2ccc(OCC(=O)N3CCN(c4ccccc4)CC3)cc12 [2-[3-(2-Amino-ethyl)-1H-indol-5-yloxy]-1-(4-phenyl-piperazin-1-yl)-ethanone] | 0.4 nM |
| NCCc1c[nH]c2ccc(OCC(=O)N3CCN(c4ccccc4CN)CC3)cc12 [2-[3-(2-Amino-ethyl)-1H-indol-5-yloxy]-1-[4-(2-aminomethyl-phenyl)-piperazin-1-yl]-ethanone] | 1.8 nM |
| NCCc1c[nH]c2ccc(OCC(=O)N3CCN(c4ccccc4[N+](=O)[O-])CC3)cc12 [2-[3-(2-Amino-ethyl)-1H-indol-5-yloxy]-1-[4-(2-nitro-phenyl)-piperazin-1-yl]-ethanone] | 0.3 nM |
| NCCc1c[nH]c2ccc(OCC(=O)N3CCN(c4ccc(N)cc4)CC3)cc12 [2-[3-(2-Amino-ethyl)-1H-indol-5-yloxy]-1-[4-(4-amino-phenyl)-piperazin-1-yl]-ethanone] | 1.6 nM |
| NCCc1c[nH]c2ccc(OCC(=O)N3CCN(c4ccc(CN)cc4)CC3)cc12 [2-[3-(2-Amino-ethyl)-1H-indol-5-yloxy]-1-[4-(4-aminomethyl-phenyl)-piperazin-1-yl]-ethanone] | 2.5 nM |
| NCCc1c[nH]c2ccc(OCC(=O)N3CCN(c4ccc([N+](=O)[O-])cc4)CC3)cc12 [2-[3-(2-Amino-ethyl)-1H-indol-5-yloxy]-1-[4-(4-nitro-phenyl)-piperazin-1-yl]-ethanone] | 0.83 nM |
| NCCc1c[nH]c2ccc(OCCCC(=O)N3CCN(c4ccc([N+](=O)[O-])cc4)CC3)cc12 [4-[3-(2-Amino-ethyl)-1H-indol-5-yloxy]-1-[4-(4-nitro-phenyl)-piperazin-1-yl]-butan-1-one] | 5 nM |
| NCCc1c[nH]c2ccc(OCCCCC(=O)N3CCN(c4ccc([N+](=O)[O-])cc4)CC3)cc12 [5-[3-(2-Amino-ethyl)-1H-indol-5-yloxy]-1-[4-(4-nitro-phenyl)-piperazin-1-yl]-pentan-1-one] | 1.8 nM |
| NCCc1c[nH]c2ccc(OCCCCCC(=O)N3CCN(c4ccc(N)cc4)CC3)cc12 [6-[3-(2-Amino-ethyl)-1H-indol-5-yloxy]-1-[4-(4-amino-phenyl)-piperazin-1-yl]-hexan-1-one] | 0.31 nM |
| NCCc1c[nH]c2ccc(OCCCCCC(=O)N3CCN(c4ccc([N+](=O)[O-])cc4)CC3)cc12 [6-[3-(2-Amino-ethyl)-1H-indol-5-yloxy]-1-[4-(4-nitro-phenyl)-piperazin-1-yl]-hexan-1-one] | 0.47 nM |
| CN(C)CCc1c[nH]c2ccc(C[C@H]3COC(=O)N3)cc12 [(S)-4-((3-(2-(dimethylamino)ethyl)-1H-indol-5-yl)methyl)oxazolidin-2-one] | 4 nM |
| CS(=O)(=O)NCc1ccccc1N1CCN(C(=O)COc2ccc3[nH]cc(CCN)c3c2)CC1 [N-[2-(4-{2-[3-(2-Amino-ethyl)-1H-indol-5-yloxy]-acetyl}-piperazin-1-yl)-benzyl]-methanesulfonamide] | 0.53 nM |
| CS(=O)(=O)NCc1ccc(N2CCN(C(=O)COc3ccc4[nH]cc(CCN)c4c3)CC2)cc1 [N-[4-(4-{2-[3-(2-Amino-ethyl)-1H-indol-5-yloxy]-acetyl}-piperazin-1-yl)-benzyl]-methanesulfonamide] | 2.2 nM |
| NCCc1c[nH]c2ccc(OCC(=O)N3CCN(c4ccc(NC(=O)c5ccccc5)cc4)CC3)cc12 [N-[4-(4-{2-[3-(2-Amino-ethyl)-1H-indol-5-yloxy]-acetyl}-piperazin-1-yl)-phenyl]-benzamide] | 1.3 nM |
| CS(=O)(=O)Nc1ccc(N2CCN(C(=O)COc3ccc4[nH]cc(CCN)c4c3)CC2)cc1 [N-[4-(4-{2-[3-(2-Amino-ethyl)-1H-indol-5-yloxy]-acetyl}-piperazin-1-yl)-phenyl]-methanesulfonamide] | 2.7 nM |
| CS(=O)(=O)Nc1ccc(N2CCN(C(=O)CCCCCOc3ccc4[nH]cc(CCN)c4c3)CC2)cc1 [N-[4-(4-{6-[3-(2-Amino-ethyl)-1H-indol-5-yloxy]-hexanoyl}-piperazin-1-yl)-phenyl]-methanesulfonamide] | 1.4 nM |
